Article PMC9150124, “Design of a Potent, Selective, and Brain-Penetrant Inhibitor of Wnt-Deactivating Enzyme Notum by Optimization of a Crystallographic Fragment Hit” (Journal of Medicinal Chemistry, 2022)

How the values were obtained:
Assay in all cases: SelectScreen kinase profiling, SSBK ZLyte SP Technology
Type in all cases: biochemical
[1] = molecular target: kinase named in conditions (Homo sapiens, UniProt P00519, G250E); settings: ABL1 G250E, 10 μM
Experimental: (§1) Kinase selectivity screening was performed by Thermo Fisher Scientific (Paisley, U.K.) in their SelectScreen Biochemical Kinase Profiling Service. Assay information and data are presented in the Supporting Information.
(§2) Kinase selectivity screening was performed by ThermoFisher Scientific (Paisley, U.K.) in their SelectScreenTM
(§3) Biochemical Kinase Profiling service .

[2] = molecular target: kinase named in conditions (Homo sapiens, UniProt Q9P1W9); settings: PIM2, 10 μM
Experimental: as §1, §2, §3

[3] = molecular target: kinase named in conditions (Homo sapiens, UniProt Q52WX2); settings: SBK1, 10 μM
Experimental: as §1, §2, §3

[4] = molecular target: kinase named in conditions (Homo sapiens, UniProt Q5VT25); settings: CDC42 BPA (MRCKA), 10 μM
Experimental: as §1, §2, §3

[5] = molecular target: kinase named in conditions (Homo sapiens, UniProt P49674, R178C); settings: CSNK1E (CK1 epsilon) R178C, 10 μM
Experimental: as §1, §2, §3

[6] = molecular target: kinase named in conditions (Homo sapiens, UniProt Q8TDC3); settings: BRSK1 (SAD1), 10 μM
Experimental: as §1, §2, §3

[7] = molecular target: kinase named in conditions (Homo sapiens, UniProt O00506); settings: STK25 (YSK1), 10 μM
Experimental: as §1, §2, §3

[8] = molecular target: kinase named in conditions (Homo sapiens, UniProt O15530)
Experimental: as §1, §2, §3

[9] = molecular target: kinase named in conditions (Homo sapiens, UniProt Q9HC98); settings: NEK6, 10 μM
Experimental: as §1, §2, §3

[10] = molecular target: kinase named in conditions (Homo sapiens, UniProt Q13882); settings: PTK6 (Brk), 10 μM
Experimental: as §1, §2, §3

[11] = molecular target: kinase named in conditions (Homo sapiens, UniProt P21802); settings: FGFR2, 10 μM
Experimental: as §1, §2, §3

[12] = molecular target: kinase named in conditions (Homo sapiens, UniProt P28482); settings: MAPK1 (ERK2), 10 μM
Experimental: as §1, §2, §3

[13] = molecular target: kinase named in conditions (Homo sapiens, UniProt P42684); settings: ABL2 (Arg), 10 μM
Experimental: as §1, §2, §3

[14] = molecular target: kinase named in conditions (Homo sapiens, UniProt Q9NWZ3); settings: IRAK4, 10 μM
Experimental: as §1, §2, §3

[15] = molecular target: kinase named in conditions (Homo sapiens, UniProt Q9H792); settings: PEAK1, 10 μM
Experimental: as §1, §2, §3

[16] = molecular target: kinase named in conditions (Homo sapiens, UniProt P07949, S891A); settings: RET S891A, 10 μM
Experimental: as §1, §2, §3

[17] = molecular target: kinase named in conditions (Homo sapiens, UniProt P43405); settings: SYK, 10 μM
Experimental: as §1, §2, §3

[18] = molecular target: kinase named in conditions (Homo sapiens, UniProt Q04759); settings: PRKCQ (PKC theta), 10 μM
Experimental: as §1, §2, §3

[19] = molecular target: kinase named in conditions (Homo sapiens, UniProt Q06418); settings: TYRO3 (RSE), 10 μM
Experimental: as §1, §2, §3

[20] = molecular target: kinase named in conditions (Homo sapiens, UniProt O14965); settings: AURKA (Aurora A), 10 μM
Experimental: as §1, §2, §3

[21] = molecular target: kinase named in conditions (Homo sapiens, UniProt Q00535)
Experimental: as §1, §2, §3

[22] = molecular target: kinase named in conditions (Homo sapiens, UniProt Q9H422); settings: HIPK3 (YAK1), 10 μM
Experimental: as §1, §2, §3

[23] = molecular target: kinase named in conditions (Homo sapiens, UniProt P42681); settings: TXK, 10 μM
Experimental: as §1, §2, §3

[24] = molecular target: kinase named in conditions (Homo sapiens, UniProt P29317); settings: EPHA2, 10 μM
Experimental: as §1, §2, §3

[25] = molecular target: kinase named in conditions (Homo sapiens, UniProt P43250); settings: GRK6, 10 μM
Experimental: as §1, §2, §3

[26] = molecular target: kinase named in conditions (Homo sapiens, UniProt P00519, T315I); settings: ABL1 T315I, 10 μM
Experimental: as §1, §2, §3

[27] = molecular target: kinase named in conditions (Homo sapiens, UniProt P53778); settings: MAPK12 (p38 gamma), 10 μM
Experimental: as §1, §2, §3

[28] = molecular target: kinase named in conditions (Homo sapiens, UniProt P15056, V600E); settings: BRAF V599E, 10 μM
Experimental: as §1, §2, §3

[29] = molecular target: kinase named in conditions (Homo sapiens, UniProt P10721, V560G); settings: KIT V560G, 10 μM
Experimental: as §1, §2, §3

[30] = molecular target: kinase named in conditions (Homo sapiens, UniProt P10721, V559D); settings: KIT V559D, 10 μM
Experimental: as §1, §2, §3

[31] = molecular target: kinase named in conditions (Homo sapiens, UniProt P07332); settings: FES (FPS), 10 μM
Experimental: as §1, §2, §3

[32] = molecular target: kinase named in conditions (Homo sapiens, UniProt Q8TD19); settings: NEK9, 10 μM
Experimental: as §1, §2, §3

[33] = molecular target: kinase named in conditions (Homo sapiens, UniProt Q16816); settings: PHKG1, 10 μM
Experimental: as §1, §2, §3

[34] = molecular target: kinase named in conditions (Homo sapiens, UniProt Q13153); settings: PAK1, 10 μM
Experimental: as §1, §2, §3

kinase named in conditions (Homo sapiens, UniProt O15530), sequence (O15530 whole entry): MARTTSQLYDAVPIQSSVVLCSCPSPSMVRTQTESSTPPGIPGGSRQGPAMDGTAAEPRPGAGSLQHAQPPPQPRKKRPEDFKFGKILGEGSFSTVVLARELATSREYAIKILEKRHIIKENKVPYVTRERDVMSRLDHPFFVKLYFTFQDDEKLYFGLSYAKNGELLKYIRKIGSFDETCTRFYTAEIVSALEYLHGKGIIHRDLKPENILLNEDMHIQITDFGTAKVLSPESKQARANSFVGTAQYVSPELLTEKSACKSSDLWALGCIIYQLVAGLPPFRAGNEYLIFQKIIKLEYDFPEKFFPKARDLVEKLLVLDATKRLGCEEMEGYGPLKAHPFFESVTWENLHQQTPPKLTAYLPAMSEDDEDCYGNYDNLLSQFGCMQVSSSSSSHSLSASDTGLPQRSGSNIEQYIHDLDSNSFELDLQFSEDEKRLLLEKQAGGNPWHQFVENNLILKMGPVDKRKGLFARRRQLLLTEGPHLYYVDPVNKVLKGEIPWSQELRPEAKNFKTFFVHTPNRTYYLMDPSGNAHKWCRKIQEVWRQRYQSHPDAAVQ
kinase named in conditions (Homo sapiens, UniProt Q00535), sequence (Q00535 whole entry): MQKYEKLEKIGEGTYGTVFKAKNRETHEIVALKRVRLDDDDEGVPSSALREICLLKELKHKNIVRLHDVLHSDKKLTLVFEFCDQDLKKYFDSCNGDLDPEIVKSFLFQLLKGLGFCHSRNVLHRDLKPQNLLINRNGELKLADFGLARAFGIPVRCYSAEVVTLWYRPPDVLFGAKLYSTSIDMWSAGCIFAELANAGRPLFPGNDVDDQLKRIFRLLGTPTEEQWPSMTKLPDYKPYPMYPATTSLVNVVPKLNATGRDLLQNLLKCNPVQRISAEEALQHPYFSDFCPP
kinase named in conditions (Homo sapiens, UniProt Q13153), sequence (Q13153 whole entry): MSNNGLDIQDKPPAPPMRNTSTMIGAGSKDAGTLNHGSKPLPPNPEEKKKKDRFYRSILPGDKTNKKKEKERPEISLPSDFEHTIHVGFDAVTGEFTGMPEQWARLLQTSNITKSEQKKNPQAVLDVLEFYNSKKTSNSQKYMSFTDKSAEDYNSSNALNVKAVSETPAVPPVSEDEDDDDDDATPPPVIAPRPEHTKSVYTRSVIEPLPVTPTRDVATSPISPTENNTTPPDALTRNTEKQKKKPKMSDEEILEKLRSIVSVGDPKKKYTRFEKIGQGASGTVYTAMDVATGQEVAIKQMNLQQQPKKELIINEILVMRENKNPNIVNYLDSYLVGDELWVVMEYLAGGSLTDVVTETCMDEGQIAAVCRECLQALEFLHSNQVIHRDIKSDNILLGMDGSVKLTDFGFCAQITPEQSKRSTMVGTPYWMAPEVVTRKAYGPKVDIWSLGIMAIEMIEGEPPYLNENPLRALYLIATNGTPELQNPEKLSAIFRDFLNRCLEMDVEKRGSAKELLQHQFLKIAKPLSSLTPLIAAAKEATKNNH
kinase named in conditions (Homo sapiens, UniProt P53778), sequence (P53778 whole entry): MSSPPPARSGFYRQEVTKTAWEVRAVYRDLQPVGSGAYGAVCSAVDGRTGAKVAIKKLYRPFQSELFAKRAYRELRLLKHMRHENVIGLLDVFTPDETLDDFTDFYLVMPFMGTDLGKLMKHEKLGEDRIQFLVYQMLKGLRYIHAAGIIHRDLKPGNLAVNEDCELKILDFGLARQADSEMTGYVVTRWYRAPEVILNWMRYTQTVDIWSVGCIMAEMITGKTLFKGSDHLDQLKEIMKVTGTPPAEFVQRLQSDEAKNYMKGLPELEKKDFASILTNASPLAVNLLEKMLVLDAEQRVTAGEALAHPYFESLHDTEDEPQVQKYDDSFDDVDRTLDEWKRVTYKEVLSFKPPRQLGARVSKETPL
kinase named in conditions (Homo sapiens, UniProt P10721, V560G), sequence (P10721 26-976 V560G): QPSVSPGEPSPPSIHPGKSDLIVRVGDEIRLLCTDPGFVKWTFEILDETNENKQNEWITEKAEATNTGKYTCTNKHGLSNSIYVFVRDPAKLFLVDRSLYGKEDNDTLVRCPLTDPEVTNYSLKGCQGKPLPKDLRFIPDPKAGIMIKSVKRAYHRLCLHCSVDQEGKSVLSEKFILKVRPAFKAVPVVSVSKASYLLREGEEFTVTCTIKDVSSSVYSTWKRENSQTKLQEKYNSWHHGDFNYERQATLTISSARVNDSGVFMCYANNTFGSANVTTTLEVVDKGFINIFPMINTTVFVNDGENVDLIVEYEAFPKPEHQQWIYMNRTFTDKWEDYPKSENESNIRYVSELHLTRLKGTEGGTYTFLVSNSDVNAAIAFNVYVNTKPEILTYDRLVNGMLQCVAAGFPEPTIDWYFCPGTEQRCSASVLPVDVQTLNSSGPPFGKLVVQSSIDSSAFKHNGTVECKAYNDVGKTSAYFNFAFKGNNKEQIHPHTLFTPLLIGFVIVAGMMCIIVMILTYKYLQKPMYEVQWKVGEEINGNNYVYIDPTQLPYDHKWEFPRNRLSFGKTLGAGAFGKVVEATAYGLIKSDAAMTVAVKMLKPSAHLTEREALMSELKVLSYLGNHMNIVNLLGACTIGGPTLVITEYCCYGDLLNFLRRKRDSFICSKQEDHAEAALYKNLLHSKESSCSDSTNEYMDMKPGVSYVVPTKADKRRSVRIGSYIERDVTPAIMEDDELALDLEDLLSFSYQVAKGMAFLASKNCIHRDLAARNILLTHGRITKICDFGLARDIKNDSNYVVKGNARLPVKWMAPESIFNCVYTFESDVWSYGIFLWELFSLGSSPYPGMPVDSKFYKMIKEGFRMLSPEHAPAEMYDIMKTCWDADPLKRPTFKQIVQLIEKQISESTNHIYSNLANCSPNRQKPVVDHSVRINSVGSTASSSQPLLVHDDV
kinase named in conditions (Homo sapiens, UniProt Q13882), sequence (Q13882 whole entry): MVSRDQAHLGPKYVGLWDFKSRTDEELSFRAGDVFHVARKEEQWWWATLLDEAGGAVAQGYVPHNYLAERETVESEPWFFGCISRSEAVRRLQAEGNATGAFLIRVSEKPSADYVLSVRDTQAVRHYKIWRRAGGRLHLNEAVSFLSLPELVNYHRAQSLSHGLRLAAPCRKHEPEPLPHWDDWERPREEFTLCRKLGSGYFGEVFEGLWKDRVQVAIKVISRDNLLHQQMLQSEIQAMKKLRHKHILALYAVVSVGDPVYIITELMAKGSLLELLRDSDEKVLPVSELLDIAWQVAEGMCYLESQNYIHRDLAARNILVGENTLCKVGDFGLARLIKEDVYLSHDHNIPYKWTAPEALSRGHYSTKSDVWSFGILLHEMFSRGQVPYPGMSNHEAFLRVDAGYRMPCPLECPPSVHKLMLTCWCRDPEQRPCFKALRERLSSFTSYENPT
kinase named in conditions (Homo sapiens, UniProt Q8TD19), sequence (Q8TD19 whole entry): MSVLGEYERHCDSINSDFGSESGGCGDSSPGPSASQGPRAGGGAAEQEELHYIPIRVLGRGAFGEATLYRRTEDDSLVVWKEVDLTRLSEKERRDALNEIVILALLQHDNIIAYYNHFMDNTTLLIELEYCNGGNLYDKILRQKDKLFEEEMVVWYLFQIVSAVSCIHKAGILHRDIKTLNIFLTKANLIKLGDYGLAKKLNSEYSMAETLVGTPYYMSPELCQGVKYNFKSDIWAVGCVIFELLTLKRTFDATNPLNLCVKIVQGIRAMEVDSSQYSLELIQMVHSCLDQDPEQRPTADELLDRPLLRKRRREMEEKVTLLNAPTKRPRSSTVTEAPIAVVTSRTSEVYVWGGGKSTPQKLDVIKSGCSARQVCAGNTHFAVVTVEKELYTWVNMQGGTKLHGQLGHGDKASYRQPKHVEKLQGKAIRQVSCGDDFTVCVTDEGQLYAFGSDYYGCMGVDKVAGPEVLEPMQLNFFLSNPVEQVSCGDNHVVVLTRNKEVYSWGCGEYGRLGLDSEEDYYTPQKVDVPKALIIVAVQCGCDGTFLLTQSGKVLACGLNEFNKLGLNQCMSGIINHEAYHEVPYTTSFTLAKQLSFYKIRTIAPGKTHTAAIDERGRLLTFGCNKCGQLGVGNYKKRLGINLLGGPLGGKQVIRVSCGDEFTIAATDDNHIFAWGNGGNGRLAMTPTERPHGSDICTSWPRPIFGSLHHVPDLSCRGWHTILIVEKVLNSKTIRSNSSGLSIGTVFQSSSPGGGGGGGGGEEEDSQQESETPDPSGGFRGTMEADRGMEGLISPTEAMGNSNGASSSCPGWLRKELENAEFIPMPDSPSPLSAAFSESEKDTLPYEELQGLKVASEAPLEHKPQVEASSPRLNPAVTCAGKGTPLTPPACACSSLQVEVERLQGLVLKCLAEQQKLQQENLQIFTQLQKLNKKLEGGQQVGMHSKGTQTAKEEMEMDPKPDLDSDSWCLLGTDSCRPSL
kinase named in conditions (Homo sapiens, UniProt Q52WX2), sequence (Q52WX2 whole entry): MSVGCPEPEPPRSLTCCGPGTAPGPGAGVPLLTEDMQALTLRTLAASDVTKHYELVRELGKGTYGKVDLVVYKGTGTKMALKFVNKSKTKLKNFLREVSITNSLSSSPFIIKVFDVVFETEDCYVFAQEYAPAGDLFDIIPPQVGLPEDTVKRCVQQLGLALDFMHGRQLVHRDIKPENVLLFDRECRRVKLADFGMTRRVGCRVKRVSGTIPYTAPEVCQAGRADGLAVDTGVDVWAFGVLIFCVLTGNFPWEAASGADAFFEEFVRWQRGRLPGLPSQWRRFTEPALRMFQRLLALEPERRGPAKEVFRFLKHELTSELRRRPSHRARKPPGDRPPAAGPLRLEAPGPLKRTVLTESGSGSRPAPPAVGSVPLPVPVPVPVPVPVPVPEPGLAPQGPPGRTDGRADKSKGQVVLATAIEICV
kinase named in conditions (Homo sapiens, UniProt Q9HC98), sequence (Q9HC98 whole entry): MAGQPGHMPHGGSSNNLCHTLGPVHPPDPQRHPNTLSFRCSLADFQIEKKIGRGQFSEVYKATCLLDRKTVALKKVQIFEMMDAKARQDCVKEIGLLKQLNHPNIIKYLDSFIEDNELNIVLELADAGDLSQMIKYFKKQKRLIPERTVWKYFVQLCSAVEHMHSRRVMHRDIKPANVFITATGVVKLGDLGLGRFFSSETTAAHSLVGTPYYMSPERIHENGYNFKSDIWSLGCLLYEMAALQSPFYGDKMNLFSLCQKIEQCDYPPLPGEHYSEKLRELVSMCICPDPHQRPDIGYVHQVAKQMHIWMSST
kinase named in conditions (Homo sapiens, UniProt P10721, V559D), sequence (P10721 26-976 V559D): as the sequence (P10721 26-976 V560G) above, with V534D, G535V counted along it

`FC(F)(F)c1c(Cl)ccc(-n2ccnn2)c1Cl` [8l, 1-(2,4-Dichloro-3-(trifluoromethyl)phenyl)-1H-1,2,3-triazole] was tested, and the inhibition at 10 µM [1] was 8%, the inhibition at 10 µM [2] was 5% and the inhibition at 10 µM [3] was 2%. For the same compound, the inhibition at 10 µM [4] was -3%, the inhibition at 10 µM [5] was -3% and the inhibition at 10 µM [6] was 0%. It also gave an inhibition at 10 µM [7] of 5%, an inhibition at 10 µM ([8]; PDK1, 10 μM) of 4% and an inhibition at 10 µM ([8]; PDK1 Direct, 10 μM) of -2%. For the same compound, the inhibition at 10 µM [9] was 12%, the inhibition at 10 µM [10] was 6% and the inhibition at 10 µM [11] was 11%. For the same compound, the inhibition at 10 µM [12] was -2%, the inhibition at 10 µM [13] was 10% and the inhibition at 10 µM [14] was 5%. The inhibition at 10 µM [15] was 20%, the inhibition at 10 µM [16] was 10% and the inhibition at 10 µM [17] was 6%. It also gave an inhibition at 10 µM [18] of -11%, an inhibition at 10 µM [19] of 5% and an inhibition at 10 µM [20] of 4%. For the same compound, the inhibition at 10 µM ([21]; CDK5/p25, 10 μM) was 1%, the inhibition at 10 µM ([21]; CDK5/p35, 10 μM) was 7% and the inhibition at 10 µM [22] was 3%. For the same compound, the inhibition at 10 µM [23] was 4%, the inhibition at 10 µM [24] was 9% and the inhibition at 10 µM [25] was 2%. The inhibition at 10 µM [26] was 0%, the inhibition at 10 µM [27] was 2% and the inhibition at 10 µM [28] was 5%. It also gave an inhibition at 10 µM [29] of 3%, an inhibition at 10 µM [30] of -3% and an inhibition at 10 µM [31] of 6%. The inhibition at 10 µM [32] was -3%, the inhibition at 10 µM [33] was 8% and the inhibition at 10 µM [34] was 23%.
